Assay results published in patent publication US20100305023A1, “Method of Delaying The Onset of Clinically Definite Multiple Sclerosis” (Teva Pharmaceutical Industries, Ltd., priority 2007, published 2010).
Where two headings read alike, the source gives them in different places.

Legend:
[1] = tested on: patients presenting a clinically isolated syndrome (CIS)
Protocol: Subgroup analyses related to the primary efficacy variable were performed with respect to demographics and CIS characteristics at initial attack onset (gender, age, and type of unifocal manifestation and steroid treatment for the initial attack), and MRI findings (disease dissemination/activity) at study baseline.
No correction for multiplicity was done for any of the following post-hoc analyses. • 1. Subgroup analysis of the primary endpoint for: gender, age, type of unifocal manifestation and corticosteroid use for the initial attack employed the Cox proportional hazards model, as for the principal analysis. Subgroup analyses of proportion of subjects converted to CDMS according to MRI activity at baseline was analyzed using Logistic Regression, as in the fourth secondary endpoint. • 2. Number of relapses: analysis of number of relapses during the placebocontrolled phase, during the entire study and on a yearly basis was performed using the Poisson regression. • 3. Time to confirmed Expanded Disability Status Scale (EDSS) progression: Progression of disability was defined as worsening of at least 1 point in EDSS sustained over 2 consecutive measurements which are at least 6 months apart. Analysis of time to confirmed EDSS progression was performed employing the Cox proportional hazards model.
Subgroups were created for demographics and CIS characteristics at onset (gender, age, and type of unifocal presentation and steroid treatment for the initial attack), and MRI findings (disease dissemination/activity) at study baseline.

[2] = tested on: patients presenting a clinically isolated syndrome (CIS); remark: listed apart in the source
Protocol: A clinical trial was undertaken to assess the effect of treatment with GA compared to placebo on the time to conversion to CDMS, as determined by Poser (the occurrence of the second clinical attack) during the double-blind phase.
Subjects receive their first dose of study medication at the baseline visit. 20 mg GA formulation is injected once daily by subcutaneous route via pre-filled syringe manufactured by Teva Pharmaceutical Industries Ltd., Israel. Subjects are evaluated at study centers at baseline, at months 1, 3, and every 3 months thereafter.
The duration of the double-blind phase is 36 months (3 years) or until subject's conversion to CDMS, whichever comes first. Conversion to CDMS is counted when the subject's symptoms are accompanied by observed objective neurological changes, consistent with: • a) an increase of at least 0.5 in the EDSS score or one grade in the score of two or more of the seven Functional Systems (FS); or • b) two grades in the score of one of FS as compared to the previous evaluation.
The subject must not be undergoing any acute metabolic changes such as fever or other medical abnormality. A change in bowel/bladder function or in cognitive function must not be entirely responsible for the changes in EDSS or FS scores.

[3] = tested on: patients presenting a clinically isolated syndrome (CIS); remark: listed apart in the source
Protocol: A clinical trial was undertaken to assess, within the time frame of the up to 3-years placebo-controlled study period, the effect of GA on clinical and MRI parameters.
Subjects received their first dose of study medication at the baseline visit. 20 mg GA formulation was injected once daily by subcutaneous route via pre-filled syringe manufactured by Teva Pharmaceutical Industries Ltd., Israel. The duration of the double-blind phase is 36 months (3 years) or until subject's conversion to CDMS, whichever comes first.

[4] = tested on: subjects with clinically isolated syndrome (CIS) suggestive of MS; settings: MRS, NAA/Cr over time
Protocol: Single voxel magnetic resonance spectroscopy (MRS) exams were performed at baseline and once a year subsequently. Scans were quantified locally and sent to the MRS Unit (Montreal) where they were deemed acceptable or in need of repeat (either acquisition or analysis). The MRS endpoint is the change in the ratio of N-acetylaspartate/creatine (NAA/Cr) ratio over time. NAA is seen only in neuronal tissue and is a marker of neuronal integrity; reducing with most types of insults to the brain. Cr is often used as an internal reference because it is relatively stable.
MRS scans were performed after T2-weighted fast-spin-time echo (FSE/TSE) scans and before gadolinium injection. MRS data was obtained from a region of central white matter using a 90-180-180 (PRESS) volume selective sequence to excite a volume of 100 mm×100 mm×20 mm (range 80-100 mm×80-100 mm×20 mm) centered on the body of the corpus callosum using a long echo time (TR 2000, TE 272). The rotation of the acquisition region was the same as for the main image series. […] The region was centered left-right so that the brain mid-line passes centrally through the region. The region was positioned anterior-posterior so that the anterior corners and posterior corners are equidistant from the skull.

[5] = tested on: patients presenting a clinically isolated syndrome (CIS); settings: early treatment vs delayed start of treatment with GA
Protocol: A clinical trial was undertaken to assess, within the time frame of 5 years, the neuroprotective effect of early versus delayed treatment with GA as reflected by clinical and MRI parameters measuring the accumulated irreversible brain tissue damage.
Subjects are evaluated at study centers at baseline, at months 1, 3, and every 3 months thereafter. MRI evaluations of T1 and T2 variables are assessed at screening, baseline, at 3 months, and every 3 months thereafter until conversion to CDMS or up to 3 years. An additional MRI assessment is performed upon conversion to CDMS only if no MRI is performed within the previous month. MRI is then performed at the next scheduled visit and every 6 months thereafter.
Brain atrophy, as measured by the change in brain volume according to the Structural Image Evaluation of Normalized Atrophy (SIENA) technique is assessed at baseline, every 12 months and at conversion to CDMS.
The volume of black holes is assessed at baseline and at every 6 months.
The count of new T1-weighted hypointense lesions is assessed every 6 months.
Exploratory endpoints are defined to assess the neuroprotective effect as reflected by clinical and MRI parameters comparing the group originally assigned to GA treatment with that randomized to receive placebo treatment (delayed start of treatment with GA). The 5-year data cohort will be used for inference. […]

patients with RRMS = settings: cited from earlier work
[6] = 20 mg once daily s.c. vs placebo

Substance: L-glutamic acid polymer with L-alanine, L-lysine, L-tyrosine, acetate (salt) [glatiramer acetate]
- Risk Reduction with Copaxone over Placebo ([1]; Age <30 years, listed as Copaxone ®): 53%
- Risk Reduction with Copaxone over Placebo ([1]; Age <30 years, listed as Copaxone®): 53%
- % CDMS in the placebo-controlled phase ([1]; Age >=30 years): 15%
- % CDMS in the placebo-controlled phase ([1]; Corticosteroids use for initial attack: No): 9%
- Risk Reduction with Copaxone over Placebo ([1]; Corticosteroids use for initial attack: No, listed as Copaxone ®): 54%
- Risk Reduction with Copaxone over Placebo ([1]; Corticosteroids use for initial attack: No, listed as Copaxone®): 54%
- % CDMS in the placebo-controlled phase ([1]; Corticosteroids use for initial attack: Yes): 16%
- % CDMS in the placebo-controlled phase ([1]; Sex: Female): 14%
- Risk Reduction with Copaxone over Placebo ([1]; Sex: Female, listed as Copaxone ®): 48%
- Risk Reduction with Copaxone over Placebo ([1]; Sex: Female, listed as Copaxone®): 48%
- % CDMS in the placebo-controlled phase ([1]; Sex: Male): 11%
- Risk Reduction with Copaxone over Placebo ([1]; Sex: Male, listed as Copaxone ®): 43%
- Risk Reduction with Copaxone over Placebo ([1]; Sex: Male, listed as Copaxone®): 43%
- % CDMS in the placebo-controlled phase ([1]; T1 Gd-enhancing lesions at baseline: T1 = 0 lesions): 14%
- Risk Reduction with Copaxone over Placebo ([1]; T1 Gd-enhancing lesions at baseline: T1 = 0 lesions, listed as Copaxone ®): 44%
- Risk Reduction with Copaxone over Placebo ([1]; T1 Gd-enhancing lesions at baseline: T1 = 0 lesions, listed as Copaxone®): 44%
- % CDMS in the placebo-controlled phase ([1]; T1 Gd-enhancing lesions at baseline: T1 >= 1 lesions): 11%
- Risk Reduction with Copaxone over Placebo ([1]; T1 Gd-enhancing lesions at baseline: T1 >= 1 lesions, listed as Copaxone ®): 71%
- Risk Reduction with Copaxone over Placebo ([1]; T1 Gd-enhancing lesions at baseline: T1 >= 1 lesions, listed as Copaxone®): 71%
- % CDMS in the placebo-controlled phase ([1]; T2 lesions at baseline: 2-8 lesions): 3%
- Risk Reduction with Copaxone over Placebo ([1]; T2 lesions at baseline: 2-8 lesions, listed as Copaxone ®): 67%
- Risk Reduction with Copaxone over Placebo ([1]; T2 lesions at baseline: 2-8 lesions, listed as Copaxone®): 67%
- % CDMS in the placebo-controlled phase ([1]; T2 lesions at baseline: >=9 lesions): 22%
- Risk Reduction with Copaxone over Placebo ([1]; T2 lesions at baseline: >=9 lesions, listed as Copaxone ®): 58%
- Risk Reduction with Copaxone over Placebo ([1]; T2 lesions at baseline: >=9 lesions, listed as Copaxone®): 58%
- % CDMS in the placebo-controlled phase ([1]; Unifocal manifestation: Optic): 6%
- Risk Reduction with Copaxone over Placebo ([1]; Unifocal manifestation: Optic, listed as Copaxone ®): 66%
- Risk Reduction with Copaxone over Placebo ([1]; Unifocal manifestation: Optic, listed as Copaxone®): 66%
- % CDMS in the placebo-controlled phase ([1]; Unifocal manifestation: Spinal): 7%
- Risk Reduction with Copaxone over Placebo ([1]; Unifocal manifestation: Spinal): 17%
- prolongation of the quartile time to CDMS [2, 6]: 115%
- reduction of the risk in developing clinically definite MS (CDMS) [2, 6]: 44%
- Kaplan-Meier time to conversion to CDMS, 25% percentile ([2]; 20 mg once daily s.c., ITT, placebo 336 days): 722 days
- patients who developed CDMS at the end of the two-year study ([3]; 20 mg once daily s.c., placebo 43 percent): 25%
- probability of development of CDMS over 3 years (Kaplan-Meier estimates) ([3]; 20 mg once daily s.c., placebo 65%): 36.4%
- treatment effect in decreasing the rate of new T2 lesions at LOV ([3]; 20 mg vs placebo, last observed value): 58%
- reduction of new T1 Gd-enhancing lesions in comparison to placebo, annual comparison ([3]; 12 months): > 4.8 fold
- reduction of new T2 lesions in comparison to placebo, annual comparison ([3]; 12 months): 6 fold
- reduction of new T2 lesions in comparison to placebo, annual comparison ([3]; 24 months): 4 fold
- reduction of new lesions in comparison to placebo, annual comparison of T1 Gd-enhancing lesions ([3]; 24 months): approximately 3.8 fold
- Number of new T2 lesions at LOV, max ([3]; GA 20 mg): 15
- Number of new T2 lesions at LOV, median ([3]; GA 20 mg): 0
- Number of new T2 lesions at LOV, min ([3]; GA 20 mg): 0
- Number of new T2 lesions at LOV, mean ([3]; GA 20 mg, placebo 1.8): 0.7
- reduction of new T1 Gd-enhancing lesions in comparison to placebo, annual comparison ([3]; ITT cohort, 12 months): > 4.5 fold
- reduction of new T2 lesions in comparison to placebo, annual comparison ([3]; ITT cohort, 12 months): > 3 fold
- reduction of new T2 lesions in comparison to placebo, annual comparison ([3]; ITT cohort, 24 months): approximately 4 fold
- reduction of new lesions in comparison to placebo, annual comparison of T1 Gd-enhancing lesions ([3]; ITT cohort, 24 months): approximately 3 fold
- reduction of the cumulative number of new T1 Gd-enhancing lesions at LOV compared to placebo ([3]; last observed value): 619
- cumulative number of new T1 Gd-enhancing lesions at LOV ([3]; placebo 1.19): 0.46
- axonal damage [4]: reduces
- 5-year relapse rate [5]: decreased
- level of disability (EDSS Score) [5]: reduced
- proportion of patients who convert to CDMS during the 5-year treatment period [5]: decreased
- time from randomization to conversion to CDMS during the 5-year period [5]: increased
- total number of enhancing lesions as measured by MRI (patients with RRMS; 20 and 40 mg/day subcutaneous, MS patients): reduce
- efficacy in reducing the frequency of relapses (patients with RRMS; patients with RRMS): well established
